Experimental data as given in PubChem BioAssay AID1919007 (Molecular Pharmacology Branch, DTP, NCI, 2023).

System: A498 complex spheroids with HUVEC/MSC, growth
Test: Anticancer human tumor A498 cell line growth inhibition [AhR];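 also: seven day exposure starting three days after spheroid seeding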;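 as to viability, T/C: luminescence signal used as a surrogate for viable cells; luminescence viability scaled so 100% equals DMSO vehicle wells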
Conditions: for IC50: curve of first compound; for viability, T/C: stronger effect = lower value
Summary of the method: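 Complex tumor spheroids co-cultured with HUVEC and human MSC stroma; AhR antagonists tested in combination with standard-of-care and investigational agents. Top concentration at or near clinical Cmax (else 10 microM), half-log dilutions; growth expressed as percent test/control.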

[1] = second compound 0.1 µM, first compound 0.0316 µM
[2] = second compound 0.1 µM, first compound 0.1 µM
[3] = second compound 0.1 µM, first compound 0.316 µM
[4] = second compound 0.1 µM, first compound 1 µM
[5] = second compound 0.1 µM, first compound 3.16 µM
[6] = second compound 0.1 µM, first compound 10 µM
[7] = second compound 0.316 µM, first compound 0.0316 µM
[8] = second compound 0.316 µM, first compound 0.1 µM
[9] = second compound 0.316 µM, first compound 0.316 µM
[10] = second compound 0.316 µM, first compound 1 µM
[11] = second compound 0.316 µM, first compound 3.16 µM
[12] = second compound 0.316 µM, first compound 10 µM
[13] = second compound 1 µM, first compound 0.0316 µM
[14] = second compound 1 µM, first compound 0.1 µM
[15] = second compound 1 µM, first compound 0.316 µM
[16] = second compound 1 µM, first compound 1 µM
[17] = second compound 1 µM, first compound 3.16 µM
[18] = second compound 1 µM, first compound 10 µM
[19] = second compound 3.16 µM, first compound 0.0316 µM
[20] = second compound 3.16 µM, first compound 0.1 µM
[21] = second compound 3.16 µM, first compound 0.316 µM
[22] = second compound 3.16 µM, first compound 1 µM
[23] = second compound 3.16 µM, first compound 3.16 µM
[24] = second compound 3.16 µM, first compound 10 µM
[25] = second compound 10 µM, first compound 0.0316 µM
[26] = second compound 10 µM, first compound 0.1 µM
[27] = second compound 10 µM, first compound 0.316 µM
[28] = second compound 10 µM, first compound 1 µM
[29] = second compound 10 µM, first compound 3.16 µM
[30] = second compound 10 µM, first compound 10 µM

| SMILES | IC50 (second compound 0.1 µM) [µM] | IC50 (second compound 0.316 µM) [µM] | IC50 (second compound 1 µM) [µM] | IC50 (second compound 3.16 µM) [µM] | IC50 (second compound 10 µM) [µM] | viability, T/C [1] [%] | viability, T/C [2] [%] | viability, T/C [3] [%] | viability, T/C [4] [%] | viability, T/C [5] [%] | viability, T/C [6] [%] | viability, T/C [7] [%] | viability, T/C [8] [%] | viability, T/C [9] [%] | viability, T/C [13] [%] | viability, T/C [14] [%] | viability, T/C [19] [%] | viability, T/C [20] [%] | viability, T/C [25] [%] | viability, T/C [26] [%] | further results |
| --- | --- | --- | --- | --- | --- | --- | --- | --- | --- | --- | --- | --- | --- | --- | --- | --- | --- | --- | --- | --- | --- |
| COc1cc(Nc2ncc3c(n2)-c2ccc(Cl)cc2C(c2c(F)cccc2OC)=NC3)ccc1C(=O)O + Cc1ccccc1N=Nc1ccc(NC(=O)c2ccnn2C)c(C)c1 | 1.92 | 1.83 | 1.51 | 1.35 | 2.55 | 70.2 | 73 | 65.8 | 54.4 | 46.6 | 33.5 | 70 | 72.4 | 70.7 | 67.8 | 67.2 | 69.2 | 72.7 | 63.9 | 63.4 | viability, T/C [10]: 54.9%; viability, T/C [11]: 45.2%; viability, T/C [12]: 34.2%; viability, T/C [15]: 59.6%; viability, T/C [16]: 56.5%; viability, T/C [17]: 41.3%; viability, T/C [18]: 31.8%; viability, T/C [21]: 62.2%; viability, T/C [22]: 49.9%; viability, T/C [23]: 44.8%; viability, T/C [24]: 31.8%; viability, T/C [27]: 56.7%; viability, T/C [28]: 59%; viability, T/C [29]: 47.9%; viability, T/C [30]: 35.1% |
| Cn1ncnc1C1c2n[nH]c(=O)c3cc(F)cc(c23)NC1c1ccc(F)cc1 (stereo not given) + Cc1ccccc1N=Nc1ccc(NC(=O)c2ccnn2C)c(C)c1 | > 0.1 | > 0.1 | > 0.1 | > 0.1 | > 0.1 | 86 | 88 |  |  |  |  | 90.4 | 88.2 |  | 81.5 | 87.3 | 83.2 | 73.7 | 79.6 | 81.7 | viability, T/C (second compound 0.1 µM, first compound 0.000316 µM): 102%; viability, T/C (second compound 0.1 µM, first compound 0.001 µM): 93.6%; viability, T/C (second compound 0.1 µM, first compound 0.00316 µM): 92.2%; viability, T/C (second compound 0.1 µM, first compound 0.01 µM): 94%; viability, T/C (second compound 0.316 µM, first compound 0.000316 µM): 96.3%; viability, T/C (second compound 0.316 µM, first compound 0.001 µM): 91.5%; viability, T/C (second compound 0.316 µM, first compound 0.00316 µM): 95.1%; viability, T/C (second compound 0.316 µM, first compound 0.01 µM): 93.3%; viability, T/C (second compound 1 µM, first compound 0.000316 µM): 93.5%; viability, T/C (second compound 1 µM, first compound 0.001 µM): 89%; viability, T/C (second compound 1 µM, first compound 0.00316 µM): 85.6%; viability, T/C (second compound 1 µM, first compound 0.01 µM): 81.2%; viability, T/C (second compound 3.16 µM, first compound 0.000316 µM): 83.7%; viability, T/C (second compound 3.16 µM, first compound 0.001 µM): 86.8%; viability, T/C (second compound 3.16 µM, first compound 0.00316 µM): 88.7%; viability, T/C (second compound 3.16 µM, first compound 0.01 µM): 84.7%; viability, T/C (second compound 10 µM, first compound 0.000316 µM): 82%; viability, T/C (second compound 10 µM, first compound 0.001 µM): 93%; viability, T/C (second compound 10 µM, first compound 0.00316 µM): 90.8%; viability, T/C (second compound 10 µM, first compound 0.01 µM): 85% |
| NS(=O)(=O)OCC1CC(n2ccc3c(NC4CCc5ccccc54)ncnc32)CC1O (stereo not given) + Cc1ccccc1N=Nc1ccc(NC(=O)c2ccnn2C)c(C)c1 | 0.334 | 0.359 | 0.316 | 0.341 | 0.348 | 87.8 | 83.8 | 49.3 | 31.3 | 26 | 20.1 | 88.5 | 83.8 | 51.2 | 86.2 | 78 | 83.5 | 77.3 | 78.2 | 71.7 | viability, T/C [10]: 31%; viability, T/C [11]: 25.7%; viability, T/C [12]: 21.3%; viability, T/C [15]: 49.2%; viability, T/C [16]: 30.1%; viability, T/C [17]: 24.2%; viability, T/C [18]: 21.9%; viability, T/C [21]: 49.6%; viability, T/C [22]: 33%; viability, T/C [23]: 25.9%; viability, T/C [24]: 22.7%; viability, T/C [27]: 50.5%; viability, T/C [28]: 33.9%; viability, T/C [29]: 25%; viability, T/C [30]: 23.2% |
| O=C(C=Cc1cccc(S(=O)(=O)Nc2ccccc2)c1)NO + Cc1ccccc1N=Nc1ccc(NC(=O)c2ccnn2C)c(C)c1 | 1.95 | 2.02 | 1.85 | 1.45 | 1.79 | 84.2 | 88.4 | 72 | 56.9 | 45.4 | 19.8 | 95.6 | 87.5 | 75.2 | 82.4 | 82.7 | 85.5 | 80.9 | 80.2 | 75.7 | viability, T/C [10]: 59.5%; viability, T/C [11]: 46.3%; viability, T/C [12]: 20.1%; viability, T/C [15]: 68.2%; viability, T/C [16]: 54.6%; viability, T/C [17]: 47%; viability, T/C [18]: 18.3%; viability, T/C [21]: 63%; viability, T/C [22]: 55.7%; viability, T/C [23]: 42.4%; viability, T/C [24]: 18.8%; viability, T/C [27]: 71.1%; viability, T/C [28]: 55.1%; viability, T/C [29]: 43.9%; viability, T/C [30]: 17.5% |
